Measured values taken from ChEMBL document CHEMBL1201862, “PubChem BioAssay data set” (2004).
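Growth conditions: 96-well plates. Treatment: test compound, 48 hours, 5 concentrations. Analysis: linear interpolation between bracketing concentrations; unreached endpoints set to highest concentration. At the GI50, growth is halved.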 Activity calls are given as the source filed them. Rule as the data show it: active = GI50 up to about 1.1 µM and inactive = higher.

What was measured:
Assay in all cases: NCI anticancer screen, dose series, 48 h
DMS-114 = test system: DMS-114
DLD-1 = test system: DLD-1
DMS-273 = test system: DMS-273
XF498 = test system: XF498
LXFL 529 = test system: LXFL 529
RXF 631 = test system: RXF 631
KM-20L2 = test system: KM-20L2
HOP-18 = test system: HOP-18

| SMILES | GI50 (DMS-114) | GI50 (DLD-1) | GI50 (DMS-273) | GI50 (XF498) | GI50 (LXFL 529) | GI50 (RXF 631) | GI50 (KM-20L2) | GI50 (HOP-18) |
| --- | --- | --- | --- | --- | --- | --- | --- | --- |
| CC1(OCc2ccccc2)C(=O)N2C1NCC2(C)C (stereo not drawn) | > 100 µM (inactive) | > 100 µM (inactive) | > 100 µM (inactive) | > 100 µM (inactive) | > 100 µM (inactive) | > 100 µM (inactive) | > 100 µM (inactive) | – |
| Cc1cc(N(CCC#N)CCC#N)ccc1/C=C\C(=O)Nc1ccccc1 | 49.7 µM (inactive) | 8.17 µM (inactive) | 59.2 µM (inactive) | > 100 µM (inactive) | 0.859 µM (active) | > 100 µM (inactive) | 1.07 µM (active) | – |
| C/C(CN1C(=O)c2ccccc2C1=O)=N\NS(=O)(=O)c1cccc(C(=O)O)c1 | > 100 µM (inactive) | > 100 µM (inactive) | > 100 µM (inactive) | > 100 µM (inactive) | > 100 µM (inactive) | > 100 µM (inactive) | > 100 µM (inactive) | > 100 µM (inactive) |
| O=c1[nH]c(=O)n(C2CC(O)C(CO)O2)cc1OS(=O)(=O)C(F)(F)F (stereo not drawn) | > 100 µM (inactive) | > 100 µM (inactive) | > 100 µM (inactive) | < 0.01 µM (active) | > 100 µM (inactive) | > 100 µM (inactive) | > 100 µM (inactive) | > 100 µM (inactive) |
| CO[C@@]1(c2ccccc2)O[C@H]2OCCC2[C@H]1c1ccc(Cl)cc1 (stereo partly drawn) | 31.8 µM (inactive) | 37.7 µM (inactive) | 39.5 µM (inactive) | 25 µM (inactive) | 27.9 µM (inactive) | 29.4 µM (inactive) | 32.1 µM (inactive) | 22.9 µM (inactive) |
